Reference: patent US11638425B2, “Agent for inducing stress tolerance in plants” (Menicon Co. Ltd., priority 2017, dated 2023)

How the values were obtained:
[1] = system: maize; assay: Salt tolerance improvement test of maize; assay type: in vivo; settings: 10 μM, 2 mL/cell; 1.0% NaCl five times every two days; fresh weight
Procedure: (§1) Two parts each involving 9 cells (3×3) were cut out of a 72-cell tray. Seedling soil was placed therein, and water was added. 4 seeds of maize were seeded per cell. The temperature was set to 20° C. using a plant growth chamber, followed by cultivation under 16-hour light and 8-hour dark conditions. After budding, Shikonix Liquid (BG) (manufactured by Ichimaru Pharcos Co., Ltd.) was diluted 500-fold and sprayed as the Lithospermi radix extract to leaf surface in one of the cell trays. The volume of the Shikonix Liquid sprayed was set to 2 mL/cell. The same volume of water was sprayed to the other cell tray and used as a control. Two days later, a 1.0% NaCl solution was prepared and absorbed from the underside of each cell tray. The NaCl solution treatment was performed five times every two days. The above-ground parts were cut off, and their fresh weights were measured. An average value (g/plant) was calculated.
as §1, with “Four parts” for “Two parts”, “budding, each naphthoquinone compound dissolved in DMSO” for “budding, Shikonix Liquid (BG) (manufactured by Ichimaru Pharcos Co., Ltd.)”, “diluted to 10 μM (final concentration) with deionized water to prepare a test solution of each example (final concentration of DMSO: 1.0% by volume). Each test solution was” for “diluted 500-fold and”, “sprayed” for “sprayed as the Lithospermi radix extract”, “the test solution” for “the Shikonix Liquid”

[2] = system: Arabidopsis thaliana; assay: Heat tolerance induction test based on chlorophyll concentration; assay type: in vivo; settings: 50 μM in medium; heat-treated at 44° C. for 1 hour; 3 days culture after
Procedure: A ⅕ MS medium was prepared in a 6-well plate, and filter paper was placed thereon. 12 individuals of wild-type Arabidopsis thaliana were seeded per well and grown at 22° C. for 7 days in a plant incubator under 16-hour light and 8-hour dark conditions. Next, the naphthoquinone compound of each example (shown in Table 3) dissolved in DMSO was added to a ⅕ MS medium, and each medium (final concentration: 50 μM) was prepared in a 6-well plate (final concentration of DMSO: 1.0% by volume). A medium containing 1.0% by volume of DMSO was used as a control.
The Arabidopsis thaliana grown for 7 days in the 6-well plate was transplanted, together with the filter paper, to the medium containing the compound and cultured for 1 day in a plant incubator. The plate was placed in a plastic bag and heat-treated at 44° C. for 1 hour in a water bath. After the heat treatment, culture was performed for 3 days in a plant incubator. The leaves of 4 Arabidopsis thaliana individuals were cut out, and chlorophyll was extracted with 300 μL of ethanol. The absorbance of each extract was measured at 649 nm and 665 nm, and the chlorophyll concentration (mg/L) was calculated. A higher chlorophyll concentration means that heat tolerance is better.
The shikonin compound of each example (shown in Table 4) dissolved in DMSO was added to a ⅕ MS medium, and each medium (final concentration: 50 μM) was prepared in a 6-well plate (final concentration of DMSO: 1.0% by volume). A medium containing 1% by volume of DMSO was used as a control. The other test procedures were performed in the same way as in Test Example 3.
The Lithospermi radix extract used was Shikonix Liquid (BG) (trade name, manufactured by Ichimaru Pharcos Co., Ltd.) containing a Lithospermum erythrorhizon root extract. The Shikonix Liquid contained, as major components, shikonin compounds such as acetylshikonin, β-hydroxyisovalerylshikonin, and isobutyrylshikonin. The Shikonix Liquid also contained, as additional minor components, α-methyl-n-butylshikonin, β,β-dimethylacrylshikonin, isovalerylshikonin, and shikonin.
The Shikonix Liquid (BG) was added at a dilution ratio of 150-fold to a ⅕ MS medium. The same amount of water was added as a control. ThermoZyme (manufactured by Fujimikogyo Co., Ltd.) was added at a dilution ratio of 150-fold as a positive control (Reference Example). The other test procedures were performed in the same way as in Test Example 3.

[3] = system: sprouted alfalfa; assay: Spindly growth suppression test of seedling; assay type: in vivo, Medicago sativa; settings: 50 μL sprayed per individual, 10 days at 25° C.
Procedure: A spindly growth suppression test was conducted using sprouted alfalfa as a seedling and naphthoquinone compounds as quinone compounds. First, just-sprouted alfalfa (Medicago sativa of the family Leguminosae) was transplanted to a plastic cup containing vermiculite. Each naphthoquinone compound (shown in Table 5) dissolved in DMSO was diluted to 100 μM or 1000 μM (final concentration) with deionized water to prepare a test solution of each example (final concentration of DMSO: 1.0% by volume). An aqueous solution containing 1.0% by volume of DMSO was used as a test solution of a control. 50 μL of the test solution was sprayed per alfalfa individual. Then, cultivation was performed for 10 days in an incubator of 25° C., followed by hypocotyl length measurement.

[4] = system: HSP17.6C-C1 of Arabidopsis thaliana; assay: HSP expression test (HSP17.6C-C1 upstream region linked to GUS, 4-MU production); assay type: in vivo; set-up: key: 4-MU per plant divided by 4-MU of 50 μM geldanamycin positive control; settings: soaked 6 hours at 22° C., positive control 50 μM geldanamycin
Procedure: First, a construct linked to β-glucuronidase (GUS) gene was introduced to 1 kb upstream of HSP17.6C-C1 of Arabidopsis thaliana (the family Brassicaceae) to prepare a mutant. Each naphthoquinone compound (shown in Table 1) dissolved in DMSO was diluted to 1 μM, 10 μM, 100 μM, or 1000 μM (final concentration) with deionized water to prepare a test solution of each example (final concentration of DMSO: 1.0% by volume). A 50 μM geldanamycin solution was similarly prepared as a positive control.
Next, two individuals of 7-day-old Arabidopsis thaliana mutants grown in a ⅕ MS medium were soaked in 300 μL of the test solution of each example or the positive control at 22° C. for 6 hours. The Arabidopsis thaliana was washed with deionized water, then soaked in 200 μL of a 4-methylumbelliferyl-β-D-glucuronide hydrate solution containing a surfactant, and incubated at 22° C. for 16 hours in the dark. The fluorescence intensity of the supernatant was measured, and the amount of 4-methylumbelliferone (4-MU) production per plant was calculated. The calculated value of 4-MU was divided by the value of 4-MU of the positive control to calculate a ratio vs. positive control. A higher numerical value means that HSP was expressed at a larger level.
Each shikonin compound or alkannin compound (shown in Table 2) dissolved in DMSO was diluted to 1 μM, 10 μM, 100 μM, or 1000 μM (final concentration) with deionized water to prepare a test solution of each example (final concentration of DMSO: 1.0% by volume). A 50 μM geldanamycin solution was similarly prepared as a positive control. The other test procedures were performed in the same way as in Test Example 1. The calculated value of 4-MU was divided by the value of 4-MU of the positive control to calculate a ratio vs. positive control. […]

[5] = system: maize; assay: Drought tolerance improvement test of maize; assay type: in vivo; settings: 10 μM, 2 mL/cell; 19 days without water, counted 5 days after water addition
Procedure: Four parts each involving 9 cells (3×3) were cut out of a 72-cell tray. Seedling soil was placed therein, and water was added. 4 seeds of maize were seeded per cell. The temperature was set to 20° C. using a plant growth chamber, followed by cultivation under 16-hour light and 8-hour dark conditions. After budding, each naphthoquinone compound dissolved in DMSO was diluted to 10 μM (final concentration) with deionized water to prepare a test solution of each example (final concentration of DMSO: 1.0% by volume). Each test solution was sprayed to leaf surface in one of the cell trays. The volume of the test solution sprayed was set to 2 mL/cell. The same volume of water was sprayed to the other cell tray and used as a control. After the spraying, cultivation was continued without the addition of water. 19 days after the spraying, water was added to the soil. 5 days after the water addition, the number of maize survivors was counted and divided by the initial number of growing plants to calculate a survival rate (%).

Row | SMILES | Above-ground part weight [1] [g/plant] | Chlorophyll concentration [2] [mg/L] | Hypocotyl length ([3]; 100 μM) [mm] | Hypocotyl length ([3]; 1000 μM) [mm] | Ratio of 4-MU amount vs. positive control ([4]; 1 μM) | Ratio of 4-MU amount vs. positive control ([4]; 10 μM) | Ratio of 4-MU amount vs. positive control ([4]; 100 μM) | Ratio of 4-MU amount vs. positive control ([4]; 1000 μM) | Survival rate [5] [%]
1 | O=C1C=CC(=O)c2c(O)ccc(O)c21 [Example 5, 5,8-Dihydroxy-1,4-naphthoquinone] | 0.653 | 6.66 | 14.6 | 15.2 | 0.48 | 2.49 | 1.96 | 0.78 | 92
2 | O=C1C(Cl)=C(Cl)C(=O)c2c(O)ccc(O)c21 [Example 7, 2,3-Dichloro-5,8-dihydroxy-1,4-naphthoquinone] | 0.677 | 6.12 | 18.1 | 14.6 | 0.80 | 5.91 | 1.72 | 0.95 | 88
